Reference: paper PMC12051620, “Molecular basis underlying the specificity of an antagonist AA92593 for mammalian melanopsins” (The Journal of Biological Chemistry, 2025)

Tests used:
[1] = system: mouse melanopsin L207^5.42F mutant; experiment: GsX GloSensor assay with Gsα/q11; type: cell-based; settings: 16.7 μM AA92593, COS-1 cells
Description: (§1) Next, we attempted to render human melanopsin more ineffective to AA92593 by combining W189^ECL2F with F94^2.61C/S188^ECL2T/S269^6.52A. […] We note that the loss of sensitivity for AA92593 by the quadruple substitutions was not due to the substitutions-induced changes in absorption spectrum or localization in COS-1 cells. […] In the GloSensor assay, a small difference in G protein activation between the triple and quadruple mutants in the presence of AA92593 would be amplified through the second messenger signaling cascade.
(§2) For GloSensor assay, opsins, GloSensor assay sensor (coded by pGlo-22F), and NanoBiT-tagged G proteins were transiently expressed in COS-1 cells (kindly provided from Dr David Farrens, Oregon Health and Science University) using PEI as described previously ([24], [52]). For the GsX GloSensor assay ([12], [13]), each well of a 96-well assay plate (Corning) was transfected with 50 ng opsin plasmid, 16.7 ng G protein plasmid, 50 ng pGlo-22F plasmid (Promega), and 500 ng PEI in 25 μl Opti-mem and 75 μl Dulbecco's modified Eagle's medium (D-MEM). […] For GFP-fluorescence microscopy, a 35-mm cell culture dish (IWAKI) was transfected with 2 μg melanopsin-GFP plasmid and 8 μg PEI in 400 μl Opti-mem and 1.2 ml D-MEM. […]

[2] = biological target: T1, human melanopsin F94^2.61C/S188^ECL2T/W189^ECL2F/S269^6.52A mutant (Homo sapiens, UniProt Q9UHM6, F127C/S222T/S313A/W223F); experiment: GsX GloSensor assay with Gsα/q11; type: cell-based; settings: up to 16.7 μM AA92593, COS-1 cells
T1 construct: expressed in transfected cells; host or cells: COS-1
Description: as §1, §2

T1 sequence (Q9UHM6 1-384 F127C/S222T/W223F/S313A): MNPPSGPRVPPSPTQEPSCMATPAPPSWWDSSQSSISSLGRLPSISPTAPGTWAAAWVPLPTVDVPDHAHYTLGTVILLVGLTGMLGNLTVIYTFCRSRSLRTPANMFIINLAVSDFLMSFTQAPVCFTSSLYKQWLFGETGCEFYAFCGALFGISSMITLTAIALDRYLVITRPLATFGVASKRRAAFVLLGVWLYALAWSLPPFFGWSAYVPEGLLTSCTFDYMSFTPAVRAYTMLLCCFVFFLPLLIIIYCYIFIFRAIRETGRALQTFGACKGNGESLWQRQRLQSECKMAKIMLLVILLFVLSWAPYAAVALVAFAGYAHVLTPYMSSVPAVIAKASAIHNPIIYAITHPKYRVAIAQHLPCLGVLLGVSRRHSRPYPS

COc1ccc(S(=O)(=O)N2CCCCC2)cc1C [AA92593]
increased susceptibility to the antagonist vs WT [1]: ~26%
sensitivity to AA92593 [2]: almost completely lost sensitivity
